ChEMBL document CHEMBL3885861, “Open TG-GATES”

Organism: Rattus norvegicus
Assay: Open TG-GATES - Regimen: Single
Format: toxicity, organism-based, Sprague-Dawley
Parameters: regimen Single, gender Male, age 6 weeks
Settings: in vivo, po, 0 mg/kg, route gavage, dose level Control; for APTT / Bas / Eos / Fbg / Hb / Ht / Lym / MCH / MCHC / MCV / Mono / Neu / PT / Plat / RBC / Ret / WBC: tissue Blood; for KIDNEY_L / KIDNEY_R / KIDNEY_TOTAL: tissue Kidney; for LIVER: tissue Liver; for A/G / ALP / ALT / AST / BUN / CRE / Ca / Cl / DBIL / GLC / IP / K / LDH / Na / PL / RALB / TBIL / TC / TG / TP / gamma-GTP: tissue Plasma

CC(=O)Oc1cc(C(C)C)c(OCCN(C)C)cc1C [MOXISYLYTE] showed a TERMINAL_BW (3 h) of 216.6 g, an APTT (3 h) of 21.3 s and a Bas (3 h) of 0%. The Eos (3 h) was 1%, the Fbg (3 h) was 307.8 mg/dL and the Hb (3 h) was 13 g/dL. It also gave a Ht (3 h) of 37.8%, a Lym (3 h) of 76.6% and an MCH (3 h) of 21.2 pg. It also gave an MCHC (3 h) of 34.4%, an MCV (3 h) of 61.6 fL and a Mono (3 h) of 2.4%. It also gave a Neu (3 h) of 19.2%, a PT (3 h) of 16.1 s and a Plat (3 h) of 118.3 x10_4/uL. The RBC (3 h) was 614.4 x10_4/ul, the Ret (3 h) was 8.8% and the WBC (3 h) was 111.5 x10_2/uL. The KIDNEY_L (3 h) was 0.9 g, the KIDNEY_R (3 h) was 0.9 g and the KIDNEY_TOTAL (3 h) was 1.9 g. It also gave an LIVER (3 h) of 9.9 g, an A/G (3 h) of 1.3 and an ALP (3 h) of 1431.6 IU/L. It also gave an ALT (3 h) of 41 IU/L, an AST (3 h) of 73.6 IU/L and a BUN (3 h) of 14.6 mg/dL. For the same compound, the CRE (3 h) was 0.2 mg/dL, the Ca (3 h) was 10.8 mg/dL and the Cl (3 h) was 106 meq/L. For the same compound, the DBIL (3 h) was 0.004 mg/dL, the GLC (3 h) was 186.8 mg/dL and the IP (3 h) was 7.7 mg/dL. It also gave a K (3 h) of 4.3 meq/L, an LDH (3 h) of 263.8 IU/L and a Na (3 h) of 141.6 meq/L. It also gave a PL (3 h) of 137.4 mg/dL, an RALB (3 h) of 3 g/dL and a TBIL (3 h) of 0.02 mg/dL. For the same compound, the TC (3 h) was 79.8 mg/dL, the TG (3 h) was 57 mg/dL and the TP (3 h) was 5.3 g/dL. The gamma-GTP (3 h) was 1 IU/L, the TERMINAL_BW (6 h) was 204.4 g and the APTT (6 h) was 20.5 s. For the same compound, the Bas (6 h) was 0%, the Eos (6 h) was 1% and the Fbg (6 h) was 338.6 mg/dL. For the same compound, the Hb (6 h) was 13.7 g/dL, the Ht (6 h) was 39.5% and the Lym (6 h) was 80.2%. The MCH (6 h) was 21.4 pg, the MCHC (6 h) was 34.6% and the MCV (6 h) was 61.9 fL. It also gave a Mono (6 h) of 1.8%, a Neu (6 h) of 16.6% and a PT (6 h) of 16.4 s. It also gave a Plat (6 h) of 129.2 x10_4/uL, an RBC (6 h) of 638.2 x10_4/ul and a Ret (6 h) of 8.1%. It also gave a WBC (6 h) of 99.5 x10_2/uL, a KIDNEY_L (6 h) of 0.9 g and a KIDNEY_R (6 h) of 1 g. For the same compound, the KIDNEY_TOTAL (6 h) was 1.9 g, the LIVER (6 h) was 8.8 g and the A/G (6 h) was 1.3. For the same compound, the ALP (6 h) was 1524.2 IU/L, the ALT (6 h) was 40.2 IU/L and the AST (6 h) was 76.4 IU/L. For the same compound, the BUN (6 h) was 10.8 mg/dL, the CRE (6 h) was 0.1 mg/dL and the Ca (6 h) was 10.6 mg/dL. For the same compound, the Cl (6 h) was 106.6 meq/L, the DBIL (6 h) was 0.024 mg/dL and the GLC (6 h) was 183.4 mg/dL. For the same compound, the IP (6 h) was 8.9 mg/dL, the K (6 h) was 4.4 meq/L and the LDH (6 h) was 273 IU/L. The Na (6 h) was 141.4 meq/L, the PL (6 h) was 125.4 mg/dL and the RALB (6 h) was 3.1 g/dL. For the same compound, the TBIL (6 h) was 0.016 mg/dL, the TC (6 h) was 71.4 mg/dL and the TG (6 h) was 47.8 mg/dL. The TP (6 h) was 5.4 g/dL, the gamma-GTP (6 h) was 1.2 IU/L and the TERMINAL_BW (9 h) was 211.6 g. It also gave an APTT (9 h) of 20.8 s, a Bas (9 h) of 0% and an Eos (9 h) of 1%. It also gave a Fbg (9 h) of 295.6 mg/dL, a Hb (9 h) of 13.2 g/dL and a Ht (9 h) of 38.3%. The Lym (9 h) was 82.2%, the MCH (9 h) was 21.6 pg and the MCHC (9 h) was 34.4%. For the same compound, the MCV (9 h) was 62.7 fL, the Mono (9 h) was 2% and the Neu (9 h) was 14.8%. The PT (9 h) was 16.1 s, the Plat (9 h) was 114.1 x10_4/uL and the RBC (9 h) was 611 x10_4/ul. It also gave a Ret (9 h) of 8.2%, a WBC (9 h) of 120.9 x10_2/uL and a KIDNEY_L (9 h) of 1 g. It also gave a KIDNEY_R (9 h) of 1 g, a KIDNEY_TOTAL (9 h) of 1.9 g and an LIVER (9 h) of 8.9 g. It also gave an A/G (9 h) of 1.3, an ALP (9 h) of 1372.2 IU/L and an ALT (9 h) of 36.8 IU/L. For the same compound, the AST (9 h) was 72 IU/L, the BUN (9 h) was 12.8 mg/dL and the CRE (9 h) was 0.1 mg/dL. It also gave a Ca (9 h) of 10.5 mg/dL, a Cl (9 h) of 106.6 meq/L and a DBIL (9 h) of 0.018 mg/dL. The GLC (9 h) was 184.8 mg/dL, the IP (9 h) was 9.6 mg/dL and the K (9 h) was 4.5 meq/L. For the same compound, the LDH (9 h) was 214 IU/L, the Na (9 h) was 142.2 meq/L and the PL (9 h) was 133.2 mg/dL. It also gave an RALB (9 h) of 3 g/dL, a TBIL (9 h) of 0.014 mg/dL and a TC (9 h) of 71.8 mg/dL. The TG (9 h) was 65.4 mg/dL, the TP (9 h) was 5.4 g/dL and the gamma-GTP (9 h) was 1 IU/L. It also gave a TERMINAL_BW (24 h) of 218.4 g, an APTT (24 h) of 20.3 s and a Bas (24 h) of 0%. For the same compound, the Eos (24 h) was 0.8%, the Fbg (24 h) was 285.6 mg/dL and the Hb (24 h) was 13.6 g/dL. For the same compound, the Ht (24 h) was 39.3%, the Lym (24 h) was 79.2% and the MCH (24 h) was 21.5 pg. The MCHC (24 h) was 34.5%, the MCV (24 h) was 62.3 fL and the Mono (24 h) was 2.2%. For the same compound, the Neu (24 h) was 17.4%, the PT (24 h) was 16.2 s and the Plat (24 h) was 118.6 x10_4/uL. It also gave an RBC (24 h) of 631.4 x10_4/ul, a Ret (24 h) of 7.8% and a WBC (24 h) of 102.9 x10_2/uL. The KIDNEY_L (24 h) was 1 g, the KIDNEY_R (24 h) was 1 g and the KIDNEY_TOTAL (24 h) was 1.9 g. The LIVER (24 h) was 10 g, the A/G (24 h) was 1.2 and the ALP (24 h) was 1643.4 IU/L. It also gave an ALT (24 h) of 44.8 IU/L, an AST (24 h) of 78.2 IU/L and a BUN (24 h) of 18.4 mg/dL. For the same compound, the CRE (24 h) was 0.2 mg/dL, the Ca (24 h) was 10.9 mg/dL and the Cl (24 h) was 106.8 meq/L. The DBIL (24 h) was 0 mg/dL, the GLC (24 h) was 189 mg/dL and the IP (24 h) was 6.6 mg/dL. It also gave a K (24 h) of 4.3 meq/L, an LDH (24 h) of 251.4 IU/L and a Na (24 h) of 142 meq/L. It also gave a PL (24 h) of 151.4 mg/dL, an RALB (24 h) of 3.1 g/dL and a TBIL (24 h) of 0.006 mg/dL. The TC (24 h) was 79.8 mg/dL, the TG (24 h) was 89 mg/dL and the TP (24 h) was 5.7 g/dL. The gamma-GTP (24 h) was 1.2 IU/L.
